Test results reported in paper PMC7689791 (Journal of Clinical Pharmacology, 2020).
“And” between values parts separate entries of the source, which are not always exact repeats. Equal values may be shown once. Read-outs that look alike come from different tables or passages of the source.

Tests used:
[1] = Population PK final model; assay type: in vivo, human
[2] = Model-predicted / simulated lemborexant exposure across covariates; design: species or system human
[3] = study 201, 15-day treatment, cited from earlier work
[4] = cited from earlier work
[5] = coadministration with famotidine; cited from earlier work
[6] = cited from earlier work; remark: listed apart in the source
[7] = test system: CYP3A; conditions: stand-alone DDI studies and PBPK modeling; cited from earlier work
[8] = Observed incidence of treatment-emergent adverse events in clinical studies
[9] = Logistic regression exposure-response analysis of TEAE probability; conditions: for Headache TEAE probability / Influenza TEAE probability / Nasopharyngitis TEAE probability / Somnolence TEAE probability / Upper Respiratory Tract Infection TEAE probability / Urinary Tract Infection TEAE probability: person
[10] = oral [14C]lemborexant, healthy subjects, ref study E2006-A001-007, NCT02046213
[11] = studies 202, 303, 304, 5 to 15 mg
[12] = 5 mg, 5th quantile, Cav,ss 6.30 ng/mL
[13] = 5 mg, 25th quantile, Cav,ss 7.90 ng/mL
[14] = 5 mg, 50th quantile, Cav,ss 10.00 ng/mL
[15] = 5 mg, 75th quantile, Cav,ss 14.00 ng/mL
[16] = 5 mg, 95th quantile, Cav,ss 19.00 ng/mL
[17] = 10 mg, 5th quantile, Cav,ss 12.00 ng/mL
[18] = 10 mg, 25th quantile, Cav,ss 17.00 ng/mL
[19] = 10 mg, 50th quantile, Cav,ss 21.00 ng/mL
[20] = 10 mg, 75th quantile, Cav,ss 27.00 ng/mL
[21] = 10 mg, 95th quantile, Cav,ss 37.00 ng/mL

Cc1ncc(OC[C@@]2(c3cccc(F)c3)C[C@H]2C(=O)Nc2ccc(F)cn2)c(C)n1 [Lemborexant]
Cav,ss ([1]; 5 mg, 5th quantile of Cav,ss): 6.30 ng/mL
Cav,ss ([1]; 5 mg, 25th quantile of Cav,ss): 7.90 ng/mL
Cav,ss ([1]; 5 mg, 50th quantile of Cav,ss): 10.00 ng/mL
Cav,ss ([1]; 5 mg, 75th quantile of Cav,ss): 14.00 ng/mL
Cav,ss ([1]; 5 mg, 95th quantile of Cav,ss): 19.00 ng/mL
Cav,ss ([1]; 10 mg, 5th quantile of Cav,ss): 12.00 ng/mL
Cav,ss ([1]; 10 mg, 25th quantile of Cav,ss): 17.00 ng/mL
Cav,ss ([1]; 10 mg, 50th quantile of Cav,ss): 21.00 ng/mL
Cav,ss ([1]; 10 mg, 75th quantile of Cav,ss): 27.00 ng/mL
Cav,ss ([1]; 10 mg, 95th quantile of Cav,ss): 37.00 ng/mL
Accumulation ratio ([1]; bedtime once-daily dosing): 1.9
Effect size of age covariate on CL/F ([1]; elderly (>65 years old) versus adults, univariate forward addition): 126%
Oral clearance lower in the elderly ([1]; elderly (≥65 years)): 26%
CL/F, elderly (categorical covariate factor) ([1]; final model estimate): 0.739
Interindividual variability CL/F ([1]; final model estimate): 48.1 %CV
Interindividual variability Q3/F ([1]; final model estimate): 56.8 %CV
Interindividual variability Q4/F ([1]; final model estimate): 46.5 %CV
Interindividual variability V2/F ([1]; final model estimate): 142 %CV
Interindividual variability V3/F ([1]; final model estimate): 82.0 %CV
Interindividual variability V4/F ([1]; final model estimate): 41.4 %CV
Q3/F ([1]; final model estimate): 32.1 L/h
Q4/F ([1]; final model estimate): 31.0 L/h
Residual variability, additive (TAD >3 h) ([1]; final model estimate): 0.0189 ng/mL
Residual variability, additive (TAD ≤3 h) ([1]; final model estimate): 2.62 ng/mL
Residual variability, proportional (TAD > 3 h) ([1]; final model estimate): 14.3 % CV
Residual variability, proportional (TAD ≤ 3 h) ([1]; final model estimate): 32.9 % CV
V2/F ([1]; final model estimate): 9.09 L
V3/F ([1]; final model estimate): 278 L
V4/F ([1]; final model estimate): 783 L
CL/F ([1]; final model estimate, typical subject): 23 L/h and 22.7 L/h
CL/F ([1]; final model, bootstrap median): 23.7 L/h
CL/F, elderly (categorical covariate factor) ([1]; final model, bootstrap median): 0.713
Interindividual variability CL/F ([1]; final model, bootstrap median): 46.8 %CV
Interindividual variability Q3/F ([1]; final model, bootstrap median): 42.6 %CV
Interindividual variability Q4/F ([1]; final model, bootstrap median): 52.0 %CV
Interindividual variability V2/F ([1]; final model, bootstrap median): 131 %CV
Interindividual variability V3/F ([1]; final model, bootstrap median): 66.1 %CV
Interindividual variability V4/F ([1]; final model, bootstrap median): 38.3 %CV
Q3/F ([1]; final model, bootstrap median): 33.0 L/h
Q4/F ([1]; final model, bootstrap median): 30.1 L/h
Residual variability, additive (TAD >3 h) ([1]; final model, bootstrap median): 0.0203 ng/mL
Residual variability, additive (TAD ≤3 h) ([1]; final model, bootstrap median): 2.46 ng/mL
Residual variability, proportional (TAD > 3 h) ([1]; final model, bootstrap median): 14.3 % CV
Residual variability, proportional (TAD ≤ 3 h) ([1]; final model, bootstrap median): 33.2 % CV
V2/F ([1]; final model, bootstrap median): 11.4 L
V3/F ([1]; final model, bootstrap median): 289 L
V4/F ([1]; final model, bootstrap median): 779 L
ALAG1 ([1]; final model, fixed): 0.403 h
D1, capsule ([1]; final model, fixed): 0.467 h
D1, nighttime dosing (covariate factor) ([1]; final model, fixed): 2.33
D1, tablet (covariate factor) ([1]; final model, fixed): 0.254
F1, food (covariate factor) ([1]; final model, fixed): 1.21
Interindividual variability D1 ([1]; final model, fixed): 167 %CV
Interindividual variability F1 ([1]; final model, fixed): 68.1 %CV
Interindividual variability Ka ([1]; final model, fixed): 43.8 %CV
Ka, capsule ([1]; final model, fixed): 0.532 h⁻¹
Ka, food (covariate factor) ([1]; final model, fixed): 0.695
Ka, tablet (covariate factor) ([1]; final model, fixed): 1.12
Contribution of beta half-life to total dispositional AUC ([1]; from microrate constants): 0.2%
Contribution of gamma half-life to total dispositional AUC ([1]; from microrate constants): 0.4%
Fraction of alpha disposition phase of total disposition AUC ([1]; from microrate constants): 99.4%
Higher exposure for high ALP ([2]; ALP 150 U/L, relative to population average): 9%
Lower exposure for underweight ([2]; BMI 15 kg/m^2, relative to typical subject with normal BMI): 25%
Higher exposure for class 1 obesity ([2]; BMI 32 kg/m^2, relative to typical subject with normal BMI): 11%
Exposure elevation in high ALP subjects ([2]; high ALP): 8%
Exposure elevation in obese subjects ([2]; high BMI): up to 20%
Higher CL/F for ALP at the upper range of normal over the typical subject ([2]; model prediction): 7%
Higher exposure in the elderly ([2]; model prediction, relative to population average / adult insomnia population): 26%
Somnolence frequency ([3]; 1-mg group): 3.1%
Somnolence frequency ([3]; 25-mg group): 22.0%
calculated logP [4]: 3.2
Decrease in lemborexant Cmax [5]: 27%
Delay in the median tmax [5]: 30 min
Effect on lemborexant AUC0-t and AUC0-inf [5]: no significant effect
Fraction of the dose bioavailable [6, 10]: at least 87%
Unchanged lemborexant in feces [6, 10]: 13.0%
Unchanged lemborexant in urine [6, 10]: not detected
Administered dose recovered as unchanged drug in urine ([6]; single ascending-dose study, ref study 001, NCT01463098): < 1%
Interaction with moderate and strong CYP3A inhibitors [7]: clinically meaningful interaction
Somnolence rate, treatment ([8]; 9-month SUNRISE 2 study): 11%
Nasopharyngitis frequency, active treatment [8, 11]: 8.6%
Upper respiratory tract infection frequency, active treatment [8, 11]: 3.2%
Urinary tract infection frequency, active treatment [8, 11]: 2.5%
Somnolence rate, treatment ([8]; study 202): 6%
Headache TEAE probability [9, 12]: 11.0 (7.8‐14.0)
Influenza TEAE probability [9, 12]: 3.8 (2.3‐6.2)
Nasopharyngitis TEAE probability [9, 12]: 10.0 (7.5‐14.0)
Somnolence TEAE probability [9, 12]: 7.2 (5.3‐9.7)
Upper Respiratory Tract Infection TEAE probability [9, 12]: 4.7 (2.9‐7.3)
Urinary Tract Infection TEAE probability [9, 12]: 2.0 (1.2‐3.5)
Headache TEAE probability [9, 13]: 9.8 (7.6‐13.0)
Influenza TEAE probability [9, 13]: 3.6 (2.3‐5.5)
Nasopharyngitis TEAE probability [9, 13]: 9.5 (7.3‐12.0)
Somnolence TEAE probability [9, 13]: 7.4 (5.7‐9.7)
Upper Respiratory Tract Infection TEAE probability [9, 13]: 4.4 (2.9‐6.4)
Urinary Tract Infection TEAE probability [9, 13]: 2.1 (1.3‐3.5)
Headache TEAE probability [9, 14]: 9.2 (7.3‐11.0)
Influenza TEAE probability [9, 14]: 3.4 (2.3‐4.9)
Nasopharyngitis TEAE probability [9, 14]: 8.9 (7.1‐11.0)
Somnolence TEAE probability [9, 14]: 7.7 (6.1‐9.7)
Upper Respiratory Tract Infection TEAE probability [9, 14]: 4.1 (2.9‐5.7)
Urinary Tract Infection TEAE probability [9, 14]: 2.3 (1.4‐3.5)
Headache TEAE probability [9, 15]: 8.3 (6.8‐10.0)
Influenza TEAE probability [9, 15]: 3.1 (2.2‐4.3)
Nasopharyngitis TEAE probability [9, 15]: 8.1 (6.6‐9.8)
Somnolence TEAE probability [9, 15]: 8.1 (6.6‐9.9)
Upper Respiratory Tract Infection TEAE probability [9, 15]: 3.6 (2.7‐4.9)
Urinary Tract Infection TEAE probability [9, 15]: 2.5 (1.7‐3.6)
Headache TEAE probability [9, 16]: 6.8 (5.3‐8.6)
Influenza TEAE probability [9, 16]: 2.6 (1.8‐3.9)
Nasopharyngitis TEAE probability [9, 16]: 6.7 (5.2‐8.6)
Somnolence TEAE probability [9, 16]: 8.9 (7.3‐11.0)
Upper Respiratory Tract Infection TEAE probability [9, 16]: 3.0 (2.0‐4.3)
Urinary Tract Infection TEAE probability [9, 16]: 2.9 (2.0‐4.1)
Headache TEAE probability [9, 17]: 9.2 (7.4‐12.0)
Influenza TEAE probability [9, 17]: 3.4 (2.3‐4.9)
Nasopharyngitis TEAE probability [9, 17]: 8.9 (7.1‐11.0)
Somnolence TEAE probability [9, 17]: 7.7 (6.0‐9.7)
Upper Respiratory Tract Infection TEAE probability [9, 17]: 4.1 (2.9‐5.7)
Urinary Tract Infection TEAE probability [9, 17]: 2.2 (1.4‐3.5)
Headache TEAE probability [9, 18]: 7.7 (6.3‐9.4)
Influenza TEAE probability [9, 18]: 2.9 (2.1‐4.1)
Nasopharyngitis TEAE probability [9, 18]: 7.6 (6.2‐9.3)
Somnolence TEAE probability [9, 18]: 8.4 (6.9‐10.0)
Upper Respiratory Tract Infection TEAE probability [9, 18]: 3.4 (2.5‐4.6)
Urinary Tract Infection TEAE probability [9, 18]: 2.6 (1.8‐3.7)
Headache TEAE probability [9, 19]: 6.8 (5.3‐8.6)
Influenza TEAE probability [9, 19]: 2.6 (1.8‐3.9)
Nasopharyngitis TEAE probability [9, 19]: 6.7 (5.2‐8.6)
Somnolence TEAE probability [9, 19]: 8.9 (7.3‐11.0)
Upper Respiratory Tract Infection TEAE probability [9, 19]: 3.0 (2.0‐4.3)
Urinary Tract Infection TEAE probability [9, 19]: 2.9 (2.0‐4.0)
Headache TEAE probability [9, 20]: 5.7 (4.0‐8.1)
Influenza TEAE probability [9, 20]: 2.3 (1.3‐4.0)
Nasopharyngitis TEAE probability [9, 20]: 5.8 (4.0‐8.1)
Somnolence TEAE probability [9, 20]: 9.6 (7.6‐12.0)
Upper Respiratory Tract Infection TEAE probability [9, 20]: 2.5 (1.5‐4.3)
Urinary Tract Infection TEAE probability [9, 20]: 3.3 (2.2‐4.9)
Headache TEAE probability [9, 21]: 3.9 (2.0‐7.4)
Influenza TEAE probability [9, 21]: 1.7 (0.6‐4.7)
Nasopharyngitis TEAE probability [9, 21]: 4.0 (2.1‐7.7)
Somnolence TEAE probability [9, 21]: 11.0 (7.5‐17.0)
Upper Respiratory Tract Infection TEAE probability [9, 21]: 1.7 (0.6‐4.6)
Urinary Tract Infection TEAE probability [9, 21]: 4.4 (2.2‐8.7)
Cav,ss as linear predictor of the probability of specific TEAEs (somnolence, nasopharyngitis, flu/influenza, urinary tract infection, upper respiratory tract infection, headache) ([9]; with and without adjustment for age): not a clinically meaningful linear predictor
